Test results taken from patent US7078566B2, “Salts of guanidine derivatives and pharmaceutical preparations consisting thereof” (Biosphinks Aktiengesellschaft, priority 2001, dated 2006).

How the values were obtained:
[1] = test system: nude mice (strain: Swiss, Nu/Nu); assay: Physiological tolerability after subcutaneous application (tissue damage after 24 h)
Protocol: Aliquots of 0.1 ml each were administered to 3 nude mice (strain: Swiss, Nu/Nu) by subcutaneous application. After 24 h, the degree of tissue damage was recorded. The results are shown in Table 4, in which no visible damage=−, reddening=+, edemas=++, and necroses=+++.

[2] = Solubility of C11AG salts in water
[3] = Solubility of C11AG salts in potassium phosphate buffer (crystal formation by microscope); conditions: for Crystals: pH 7.4, 4 mM C11AG salt
[4] = molecular target: neutral sphingomyelinase from Bacillus cereus (Bacillus cereus, UniProt P11889); assay: biochemical; conditions: pH 7.2, 37° C., 24 h
Chain of neutral sphingomyelinase from Bacillus cereus (P11889 28-333): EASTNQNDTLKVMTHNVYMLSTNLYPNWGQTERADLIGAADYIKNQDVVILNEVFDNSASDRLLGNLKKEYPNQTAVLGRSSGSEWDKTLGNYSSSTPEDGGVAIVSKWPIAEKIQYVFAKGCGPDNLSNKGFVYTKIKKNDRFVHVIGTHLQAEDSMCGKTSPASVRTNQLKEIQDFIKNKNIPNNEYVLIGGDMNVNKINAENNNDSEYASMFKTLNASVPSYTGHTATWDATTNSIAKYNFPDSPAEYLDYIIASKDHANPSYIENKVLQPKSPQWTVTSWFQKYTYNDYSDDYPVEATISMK
Protocol: Paranitrophenylphosphoryl-choline was dissolved to a final concentration of 1 mg/ml in 0.1 M Tris at pH 7.2 and 10 mM […]. […] The optical density is a measure for the quantity of cleaved substrate. Dose-effect curves were used to determine the concentration at which the enzyme activity is inhibited by 50% (IC50).

DSS induced colitis = assay: DSS induced colitis, body weight loss; type: in vivo, mice (strain Balb C); conditions: in food equimolar to 0.5 mg C11AG/g
Text: (§1) Female mice (strain Balb C, 9 weeks old) were obtained from Charles River and were kept under specific pathogen free conditions under an artificial day/night rhythm. Animals were fed with Altromin standard diet and received water ad libitum. Colitis was induced by addition of dextran sulfate (DSS) (MW 36,000–50,000, ICN, Aurora, Ohio, lot 2387F) to drinking water at a concentration of 7.5%. For C11AG treatment the free base of C11AG (lot 2-3-3) was used. Animals received Altromin powder food, mixed with 0.5 mg C11AG/g or with equimolar concentration of C11AG salt (i.e. 0.785 mg/g C11AG hexanate). As determined in calibration experiments Balb C mice (8–12 weeks old) consume each day 150 g food/kg body weight. The corresponding daily doses of C11AG were therefore: 75 and […]. Body weight loss is one of the most evident symptoms of DSS induced colitis. Mean body weight was determined every day for each group and the weight loss was calculated.
as §1, with “libitum.Colitis” for “libitum. Colitis”, “Animals received Altromin powder food, mixed with 0.5 mg C11AG/g or with equimolar concentration of C11AG salt (i.e. 0.785 mg/g C11AG hexanate).” left out, “calculated. Mean weight loss was added over a period of eleven days.” for “calculated.”

[5] = paranitrophenylphosphoryl-choline substrate
[6] = IC50, paranitrophenylphosphoryl-choline substrate
[7] = Example 10, mean weight loss added over eleven days, FIG. 3

| Compound | Solubility in water [2] | IC50 [4, 5] | Crystals ([3]; phosphate 1 mM–1,000 mM) | Protection from DSS induced weight loss as compared to the free base (DSS induced colitis; [7]) | further results |
| --- | --- | --- | --- | --- | --- |
| CC(=O)O.CCCCCCCCCCC=NNC(=N)N [Acetate, undecylideneaminoguanidine acetate] | >10000 µg/mL | 0.85 µg/mL |  |  | concentration up to which well-tolerated / no damage ([1]; 0.1 ml subcutaneous, nude mice, after 24 h): 20000 µM; Crystals ([3]; phosphate 1 mM): no; Crystals ([3]; phosphate 10 mM–1,000 mM): yes; phosphate concentration at which the salt precipitates (forms insoluble phosphates) ([3]; potassium phosphate buffer pH 7.4, 4 mM C11AG salt): 10 mM |
| CCCCCCCCCCC=NNC(=N)N [Chloride, reference compound] |  |  | yes |  | lowest concentration leading to reddening and edemas ([1]; Swiss Nu/Nu (nude), mouse, in vivo, sc, 24 h): 20 mM; solubility ([2]; water): > 10000 µg/mL; IC50 [4, 6]: 3.53 µM |
| CC(O)C(=O)O.CCCCCCCCCCC=NNC(=N)N [Lactate, undecylideneaminoguanidine lactate] |  | 0.9 µg/mL |  |  | Crystals ([3]; phosphate 1 mM): no; Crystals ([3]; phosphate 10 mM–1,000 mM): yes |
| CCCCCCCCCCC=NNC(=N)N [Oenanthate, undecylideneaminoguanidine oenanthate] | >10000 µg/mL |  | no |  | IC50 [4, 6]: 3.31 µM |
| Dodecylphosphonate | 100 µg/mL |  |  |  |  |
| Undecylenate | 100 µg/mL |  |  |  |  |
| undecylideneaminoguanidine decanoate [Decanate] |  |  |  | more pronounced |  |
| undecylideneaminoguanidine hexanoate [hexanoic acid salt of C11AG] |  |  |  | more pronounced | Protection from DSS induced weight loss as compared to the free base (DSS induced colitis; Example 9, mean weight loss per day, FIG. 2): more pronounced |
| undecylideneaminoguanidine octanoate [octanoic acid salt of C11AG] |  |  |  | more pronounced |  |
| undecylideneaminoguanidine pelargonate | >10000 µg/mL | 0.95 µg/mL | no |  |  |
